pEC50, pIC50: −log10 of the molar value.
Columns and labels:
[1] = tested on: Cdc2 (Cdk1) tyrosine-15 phosphorylation in NCI-H1299 cells; assay: Inhibitory effect on Cdc2 (Cdk1) tyrosine-15 phosphorylation in cells (Pharmacological Test 2, NCI-H1299 method); assay type: cell-based; settings: Homo sapiens, 200 nM camptothecin 16 hours, then test compound with nocodazole 8 hours, ELISA ratio of tyrosine-15-phosphorylated Cdc2 to Cdc2, read-out: Cdc2-Tyrosine 15 Phosphorylation Inhibiting Effect
From the text: Pharmacological Test 2 (Method for determining drug effect using cells (inhibitory effect on Cdc2 (Cdk1) tyrosine-15 phosphorylation))
Fetal bovine serum (FBS) was purchased from Morgate, Inc.; an RPMI-1640 medium and a DMEM medium were purchased from Invitrogen, Inc.; camptothecin was purchased from Sigma Co.; gemcitabine was purchased from Eli Lilly Japan K.K.; nocodazole and protease inhibitor cocktail were purchased from Sigma Co.; a rabbit anti-Cdc2 antibody and a mouse anti-Cdc2 antibody were purchased from Santa Cruz Biotechnology, Inc.; a rabbit anti-tyrosine-15-phosphorylated Cdc2 antibody and a horseradish peroxidase-labeled anti-mouse IgG antibody were purchased from Cell Signaling Technology, Inc.; and Sure Blue Reserve TMB peroxidase substrate was purchased from Kirkegaard & Perry Laboratories, Inc.
A human non-small cell lung cancer cell line (NCI-H1299) and a human colon cancer cell line (WiDr) can be obtained from American Type Culture Collection (ATCC).
In the method using NCI-H1299 cells, the cells were suspended in an RPMI-1640 medium supplemented with 10% FBS, and 100 μL of the resulting cell suspension was dispensed in a Nunclon Delta treated 96-well plastic plate purchased from Nunc, Inc. at a density of 2000 cells per well, and the plate was incubated overnight at 37° C. under an atmosphere of 5% CO2 and 95% air. Camptothecin was dissolved in dimethyl sulfoxide (DMSO) and further the resulting solution was diluted with an RPMI-1640 medium supplemented with 10% FBS. Then, 50 μL of the diluted solution was added to each well of the plate in which the cells were seeded in advance such that the final concentration of camptothecin was 200 nM, and the plate was incubated at 37° C. under an atmosphere of 5% CO2 and 95% air for 16 hours. A test compound was serially diluted with DMSO, and further diluted with an RPMI-1640 medium supplemented with 10% FBS containing 4000 nM nocodazole. Then, 50 μL of the test compound solution was added to each well of the plate in which the cells treated with camptothecin were seeded, and the plate was incubated at 37° C. under an atmosphere of 5% CO2 and 95% air for 8 hours. Then, the culture medium was removed from each well and […] of a cell lysis buffer was added to each well, and the plate was shaken at 4° C. for 2 hours, and thereafter the liquid in the plate was frozen at −80° C. and then thawed, which was used as a lysed cell solution. Cdc2 and tyrosine-15-phosphorylated Cdc2 in this lysed cell solution were measured by an enzyme-linked immunosorbent assay (ELISA method), and a ratio of tyrosine-15-phosphorylated Cdc2 to Cdc2 was calculated to determine a 50% effective concentration (EC50, nM) of the test compound for inhibition of phosphorylation in cells. The cell lysis buffer as used herein is an aqueous solution […] containing 20 mM HEPES (pH 7.5), 150 mM sodium chloride, 1 mM disodium ethylenediamine tetraacetate, 0.1% polyoxyethylene (10) octylphenyl ether, 1% protease inhibitor cocktail, 1 mM dithiothreitol, 2 mM sodium orthovanadate, 10 mM sodium fluoride and 10 mM glycerol diphosphate. The measurement of Cdc2 by the ELISA method was carried out as follows. 50 μL of a solution of a rabbit anti-Cdc2 antibody obtained by diluting the antibody to 200 times with 50 mM carbonate-bicarbonate buffer (pH 9.6) was dispensed into each well of a 96-well Maxisorb immunoplate purchased from Nunc, Inc., and the immunoplate was let stand overnight at 4° C. to immobilize the antibody thereto. Subsequently, each well was washed three times with phosphate buffered saline (PBS), and 300 μL of PBS containing 5% bovine serum albumin (5% BSA/PBS) was added to each well, and then, the immunoplate was let stand at room temperature for 2 hours. […]

Wee1 kinase = biological target: T1, Wee1 kinase (Homo sapiens, UniProt P30291); assay: Wee1 kinase inhibitory effect (Pharmacological Test 1); assay type: biochemical; settings: purified GST-tagged Wee1 kinase, Poly(Lys, Tyr) substrate, 10 μM ATP, 30° C. for 30 minutes; read-out: Weel Inhibition Activity (IC50)
T1 construct: made in house; host or cells: Sf9 insect cells (recombinant baculovirus)
T1 sequence (P30291 whole entry): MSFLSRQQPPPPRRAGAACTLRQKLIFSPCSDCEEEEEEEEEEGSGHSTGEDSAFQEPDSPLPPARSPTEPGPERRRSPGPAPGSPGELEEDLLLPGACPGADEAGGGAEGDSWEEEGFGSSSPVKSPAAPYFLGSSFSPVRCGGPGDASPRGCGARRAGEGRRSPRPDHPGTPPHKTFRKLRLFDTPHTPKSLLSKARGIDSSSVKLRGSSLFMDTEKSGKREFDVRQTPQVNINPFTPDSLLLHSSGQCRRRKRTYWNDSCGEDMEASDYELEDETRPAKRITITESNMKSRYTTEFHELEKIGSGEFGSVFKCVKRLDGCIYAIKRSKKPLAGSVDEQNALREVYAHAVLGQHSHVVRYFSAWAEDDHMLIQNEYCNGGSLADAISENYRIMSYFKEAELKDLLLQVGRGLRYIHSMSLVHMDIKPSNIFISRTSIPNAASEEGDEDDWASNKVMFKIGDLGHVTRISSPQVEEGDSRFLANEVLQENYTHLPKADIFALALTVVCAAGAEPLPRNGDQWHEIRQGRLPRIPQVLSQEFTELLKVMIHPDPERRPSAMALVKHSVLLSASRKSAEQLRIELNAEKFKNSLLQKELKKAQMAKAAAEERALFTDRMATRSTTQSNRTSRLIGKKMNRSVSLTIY
From the text: The following describes exemplary pharmacological tests of a compound of the present invention._Pharmacological Test 1 (Wee1 kinase inhibitory effect)
A cDNA of Wee1 kinase with glutathione-S-transferase (GST) fused at the amino terminal thereof was inserted into a baculovirus expression vector to construct a recombinant baculovirus, with which cells of an insect cell line Sf9 were infected to overexpress the target protein. The infected cells were collected and lysed, and then the GST-tagged Wee1 kinase protein was adsorbed to a glutathione column and eluted from the column with glutathione, and the active fraction was desalted in a desalting column to give a purified enzyme.
In measurement of the Wee1 kinase activity, a synthetic peptide, Poly(Lys, Tyr) hydrobromide (Lys:Tyr (4:1)) purchased from Sigma was used as the substrate.
The amount of the reaction mixture was 21.1 μL; and the composition of the reaction buffer was 50 mM Tris-HCl buffer (pH 7.4)/10 mM magnesium chloride/1 mM dithiothreitol. The purified Wee1 kinase, 2.5 μg of the substrate peptide, 10 μM of non-labeled adenosine triphosphate (ATP) and 1 μCi of [γ-^33P]-labeled ATP (2500 Ci/mmol or more) were added to the reaction buffer, and the resulting mixture was incubated at 30° C. for 30 minutes. Thereafter, 10 μL of 350 mM phosphate buffer was added to the reaction system to stop the reaction. The substrate peptide was adsorbed on a P81 paper filter 96-well plate and the plate was washed several times with 130 mM phosphate buffer, and the radioactivity thereof was counted using a liquid scintillation counter. The [γ-^33P]-labeled ATP was purchased from Amersham Bioscience, Ltd.
The addition of a test compound to the reaction system was carried out by preparing a series of dilutions of the compound with dimethyl sulfoxide (DMSO) and adding 1.1 μL of each dilution to the reaction system. As a control, 1.1 μL of DMSO was added to the reaction system.

| pEC50 [1] | pIC50 (Wee1 kinase) | SMILES |
| --- | --- | --- |
| 6.96 | 7.74 | CN1CCC2(CCCN(c3ccc(Nc4ncc5c(=N)n(-c6c(Cl)cccc6Cl)c(=O)[nH]c5n4)cc3)C2)C1 (stereo not shown) [Example 10, 3-(2,6-Dichlorophenyl)-4-imino-7-{[4-(2-methyl-2,7-diazaspiro[4,5]dec-7-yl)phenyl}amino)-3,4-dihydropyrimido[4,5-d]pyrimidin-2(1H)-one] |
| 7.07 | 8.70 | Cn1c(=O)n(-c2c(Cl)cccc2Cl)c(=N)c2cnc(Nc3ccc(N4CCOC(CO)C4)cc3)nc21 (stereo not shown) [Example 2, 3-(2,6-Dichlorophenyl)-7-({4-[2-(hydroxymethyl)morpholin-4-yl]phenyl}amino)-4-imino-1-methyl-3,4-dihydropyrimido[4,5-d]pyrimidin-2(1H)-one] |
| 7.60 | 8.10 | Cc1cc(Nc2ncc3c(=N)n(-c4c(Cl)cccc4Cl)c(=O)[nH]c3n2)ccc1N1CCN(C)CC1 [Example 6, 3-(2,6-Dichlorophenyl)-4-imino-7-{[3-methyl-4-(4-methylpiperazin-1-yl)phenyl]amino}-3,4-dihydropyrimido[4,5-d]pyrimidin-2(1H)-one] |
| 7.47 | 8.00 | CN(C)CC1CN(c2ccc(Nc3ncc4c(=N)n(-c5c(Cl)cccc5Cl)c(=O)n(C)c4n3)cc2)CCO1 (stereo not shown) [Example 4, 3-(2,6-Dichlorophenyl)-7-[(4-{2-[(dimethylamino)methyl]morpholin-4-yl}phenyl)amino]-4-imino-1-methyl-3,4-dihydropyrimido[4,5-d]pyrimidin-2(1H)-one] |
| 7.12 | 7.77 | CN(C)[C@@H]1CCN(c2ccc(Nc3ncc4c(=N)n(-c5c(Cl)cccc5Cl)c(=O)[nH]c4n3)cc2)C1 [Example 8, 3-(2,6-Dichlorophenyl)-7-({4-[(3R)-3-dimethylaminopyrrolidin-1-yl]phenyl}amino)-4-imino-3,4-dihydropyrimido[4,5-d]pyrimidin-2(1H)-one] |
|  | 8.22 | CN1CCN(c2ccc(Nc3ncc4c(=N)n(-c5c(Cl)cccc5Cl)c(=O)n(C)c4n3)cc2)CC1 [Example 7, 3-(2,6-Dichlorophenyl)-4-imino-1-methyl-7-{[4-(4-methylpiperazin-1-yl)phenyl]amino}-3,4-dihydropyrimido[4,5-d]pyrimidin-2(1H)-one] |
| 7.15 | 8.40 | Cn1c(=O)n(-c2c(Cl)cccc2Cl)c(=N)c2cnc(Nc3ccc(N4CCN(CCO)CC4)cc3)nc21 [Example 1, 3-(2,6-Dichlorophenyl)-7-({4-[4-(2-hydroxyethyl)piperazin-1-yl]phenyl}amino)-4-imino-1-methyl-3,4-dihydropyrimido[4,5-d]pyrimidin-2(1H)-one] |
| 7.35 | 7.92 | CN(C)CC(=O)N1CCN(c2ccc(Nc3ncc4c(=N)n(-c5c(Cl)cccc5Cl)c(=O)n(C)c4n3)cc2)CC1 [Example 3, 3-(2,6-Dichlorophenyl)-7-[(4-{4-[(dimethylamino)acetyl]piperazin-1-yl}phenyl)amino]-4-imino-1-methyl-3,4-dihydropyrimido[4,5-d]pyrimidin-2(1H)-one] |
| 6.96 | 7.80 | CN1CC2CCN(c3ccc(Nc4ncc5c(=N)n(-c6c(Cl)cccc6Cl)c(=O)[nH]c5n4)cc3)C2C1 (stereo not shown) [Example 9, 3-(2,6-Dichlorophenyl)-4-imino-7-{[4-(5-methylhexahydropyrrolo[3,4-b]pyrrol-1(2H)-yl)phenyl}amino)-3,4-dihydropyrimido[4,5-d]pyrimidin-2(1H)-one] |
| 7.18 | 7.77 | CN1CCN(c2ccc(Nc3ncc4c(=N)n(-c5c(Cl)cccc5Cl)c(=O)[nH]c4n3)cc2)CC1 [Example 5, 3-(2,6-Dichlorophenyl)-4-imino-7-{[4-(4-methylpiperazin-1-yl)phenyl]amino}-3,4-dihydropyrimido[4,5-d]pyrimidin-2(1H)-one] |

Source: patent publication US8507505B2, “Dihydropyrazolopyrimidinone derivative” (MSD K.K., priority 2008, dated 2013)
